Consider one molecule from patent publication US11566212B2, “Integrated microfluidic system for culturing and testing” (priority 2016, dated 2023).

Assay in data set [1]: not given
The source holds these as a separate data set.

Where [2] appears, read: Franz cells, silicone membrane soaked in isopropyl myristate.
[3] abbreviates: Diffusion chips, silicone membrane soaked in isopropyl myristate.

The structures appear in SMILES notation. Like-named read-outs stand apart in the source and are kept apart here.

`Cn1c(=O)c2c(ncn2C)n(C)c1=O` [caffeine] gave a Steady state flux (24 h) of 13 μg/cm^2 h and a Steady state flux in data set [1] (24 h) of 13 μg/cm^2 h. For the same molecule, the “Dm (diffusion coefficient)” value under setting [2] is 1.3 10^−3 cm^2/h and the “Dm (diffusion coefficient)” value in data set [1] (setting [3]) is 1.8 10^−3 cm^2/h. For the same molecule, the “tlag (lag time)” value under setting [2] amounted to 0.52 h and the “tlag (lag time)” value in data set [1] (setting [3]) was 0.37 h.
